In patent US8715731B2, “Process of reducing the bitter taste of water soluble actives by co-grinding the active with β cyclodextrin” (ISP Investments Inc., priority 2006, dated 2014) one finds solubility data, which are given here for 1 molecule.

The nature of the data set: physchem. The conditions noted are these: water. The method, then: The degree of formation of an inclusion complex between the drug and β-cyclodextrin was determined quantitatively by Differential Scanning Calorimetry (DSC).

Converted amounts (≈) assume the structure as drawn.

In the case of `NC(N)=Nc1nc(CSCCC(N)=NS(N)(=O)=O)cs1` [famotidine], the solubility was 1000 µg/mL (≈ 2960 µM).
